Assay results from patent publication US20060110769A1, “Regulation of novel human prolyl 4-hydroxylases” (Bayer Aktiengesellschaft, priority 2001, published 2006).

Test system: human prolyl 4-hydroxylase
Assay: Expression of human prolyl 4-hydroxylase by Western blotting in oligonucleotide-treated HCT116 cells
Assay type: cell-based
Settings: HCT116, 10 μM once per day for seven days
Description: The cell line used for testing is the human colon cancer cell line HCT116. Cells are cultured in RPMI-1640 with 10-15% fetal calf serum at a concentration of 10,000 cells per milliliter in a volume of 0.5 ml and kept at 37° C. in a 95% air/5% CO2 atmosphere.
Phosphorothioate oligoribonucleotides are synthesized on an Applied Biosystems Model 380B DNA synthesizer using phosphoroamidite chemistry. A sequence of 24 bases complementary to the nucleotides at position 1 to 24 of SEQ ID NO:1 or SEQ ID NO:3 is used as the test oligonucleotide. As a control, another (random) sequence is used: 5′-TCAACTGACTAGATGTACATGGAC-3′ (SEQ ID NO:11). Following assembly and deprotection, oligonucleotides are ethanol-precipitated twice, dried, and suspended in phosphate buffered saline at the desired concentration. Purity of the oligonucleotides is tested by capillary gel electrophoresis and ion exchange HPLC. The purified oligonucleotides are added to the culture medium at a concentration of 10 μM once per day for seven days.
This effect is not observed with the control oligonucleotide. After 3 to 7 days, the number of cells in the cultures is counted using an automatic cell counter. The number of cells in cultures treated with the test oligonucleotide (expressed as 100%) is compared with the number of cells in cultures treated with the control oligonucleotide.

5′-TCAACTGACTAGATGTACATGGAC-3′ (TCAACTGACTAGATGTACATGGAC; listed as DNA, chemistry not given here) [control oligonucleotide]
expression of human prolyl 4-hydroxylase as determined by Western blotting: not observed
